Source: paper PMC8954350, “Non-Canonical Cannabinoid Receptors with Distinct Binding and Signaling Properties in Prostate and Other Cancer Cell Types Mediate Cell Death” (International Journal of Molecular Sciences, 2022)

What was measured:
human CB2 receptors = molecular target: T1, human CB2 receptors (Homo sapiens, UniProt P34972); assay: Competition binding, CHO-hCB2 membranes; settings: membranes from CHO cells stably expressing human CB2
T1 construct: expressed in transfected cells
Method: The assay was performed as previously detailed. […] All binding reactions were conducted in triplicate, in a final volume of 1 mL, and, following mixing, were incubated for 20 min in a 37 °C water bath to achieve equilibrium. After incubation, reactions were terminated by rapid vacuum filtration and processed for radioactivity, as detailed in Section 4.5.1.
Curve-fitting and all statistical analyses were performed using GraphPad Prism® v8.0g (GraphPad Software, Inc.; San Diego, CA, USA). […] For CBR screening studies, a one-sample t-test was performed to determine differences from 100% (e.g., to quantify compounds producing displacement), followed by a one-way ANOVA and Tukey’s post hoc tests to compare displacement produced by all drugs. […] To compare specific CBR affinity (Ki) between ligands, non-linear regression analysis was employed to determine experimental IC50 values from competition receptor binding assays, which were then converted to Ki values using the Cheng–Prusoff equation [35]. […] For LDH release, ATP-dependent cell viability and JC-1 staining assays, drug effects were first analyzed by a one-sample t-test to determine differences from 0 or 100% (vehicle), followed by a one-way ANOVA and Dunnett’s post hoc test to compare all means. […]

[1] = test system: CBRs expressed in C6-glioma cells; assay: [^3H]WIN-55,212-2 competitive binding screen, C6-glioma membranes; design: species or system mouse; settings: 1 μM ligand, 1 nM radioligand
Method: (§1) The assay was conducted as previously detailed. […] All binding reactions were conducted in triplicate, in a final volume of 1 mL, and, following mixing, were incubated for 20 min in a 37 °C water bath to achieve equilibrium. After incubation, reactions were terminated by rapid vacuum filtration through Whatman GF/B glass fiber filters (Brandel; Gaithersburg, MD, USA), followed by three washes of 4 mls of ice-cold filtration buffer (50 mM Tris, pH 7.4, and 0.05% bovine serum albumin). Samples were punched out from filter papers into scintillation vials, to which 4 mls of ScintiverseTM-BDR cocktail scintillation fluid (Fisher Scientific; Hampton, NH, USA) was added. Filters were incubated at room temperature for 24 h in scintillation fluid, vortexed, and radioactivity (measured as DPMs) was quantified via a liquid scintillation spectrophotometer (Tri Carb 2100 TR Liquid Scintillation Analyzer, Packard Instruments, Meriden, CT, USA).

[2] = test system: CBRs expressed in PC-12 cells; assay: [^3H]WIN-55,212-2 competitive binding screen, PC-12 membranes; design: species or system rat; settings: 1 μM ligand, 1 nM radioligand
Method: as §1

[3] = test system: CBRs expressed in PC-12 cells; assay: [^3H]CP-55,940 competitive binding screen, PC-12 membranes; design: species or system rat; settings: 1 μM ligand, 0.2 nM radioligand
Method: as §1

[4] = test system: CBRs expressed in DU-145 cells; assay: [^3H]CP-55,940 competitive binding screen, DU-145 membranes; design: species or system human; settings: 1 μM ligand, 0.2 nM radioligand
Method: as §1

[5] = test system: canonical human CB1Rs (CHO-hCB1); design: method as in PMID 34592231; settings: 1 μM ligand, 1 nM radioligand, CHO-hCB1 membranes; cited from earlier work
[6] = molecular target: non-canonical CBRs expressed in PC-3; assay: Homologous receptor binding, PC-3; design: species or system human; settings: homologous competition with [^3H]WIN-55,212-2 (1 nM), read-out: affinity (KD)
Method: (§2) All binding reactions were conducted in triplicate, in a final volume of 1 mL, and, following mixing, were incubated for 20 min in a 37 °C water bath to achieve equilibrium. After incubation, reactions were terminated by rapid vacuum filtration and processed for radioactivity, as detailed in Section 4.5.1.
(§3) Curve-fitting and all statistical analyses were performed using GraphPad Prism® v8.0g (GraphPad Software, Inc.; San Diego, CA, USA). For qRT-PCR experiments, a one-way ANOVA, followed by Dunnett’s test as a post hoc test was utilized to compare fold change of PC-3 and DU-145 cancer cells to an arbitrary value of 1, set to the amount of mRNA transcribed from a human normal prostate control. For CBR screening studies, a one-sample t-test was performed to determine differences from 100% (e.g., to quantify compounds producing displacement), followed by a one-way ANOVA and Tukey’s post hoc tests to compare displacement produced by all drugs. […] For LDH release, ATP-dependent cell viability and JC-1 staining assays, drug effects were first analyzed by a one-sample t-test to determine differences from 0 or 100% (vehicle), followed by a one-way ANOVA and Dunnett’s post hoc test to compare all means. […]

[7] = molecular target: non-canonical CBRs expressed in HeLa; assay: Homologous receptor binding, HeLa; design: species or system human; settings: homologous competition with [^3H]WIN-55,212-2 (1 nM), read-out: affinity (KD)
Method: as §2, §3

[8] = test system: CBRs expressed in HeLa cells; assay: [^3H]CP-55,940 competitive binding screen, HeLa membranes; design: species or system human; settings: 1 μM ligand, 0.2 nM radioligand
Method: as §1

[9] = molecular target: non-canonical CBRs expressed in C6-glioma; assay: Homologous receptor binding, C6-glioma; design: species or system mouse; settings: homologous competition with [^3H]WIN-55,212-2 (1 nM), read-out: affinity (KD)
Method: as §2, §3

[10] = test system: canonical human CB2Rs (CHO-hCB2); design: method as in PMID 34592231; settings: 1 μM ligand, 1 nM radioligand, CHO-hCB2 membranes; cited from earlier work

T1 sequence (P34972 whole entry): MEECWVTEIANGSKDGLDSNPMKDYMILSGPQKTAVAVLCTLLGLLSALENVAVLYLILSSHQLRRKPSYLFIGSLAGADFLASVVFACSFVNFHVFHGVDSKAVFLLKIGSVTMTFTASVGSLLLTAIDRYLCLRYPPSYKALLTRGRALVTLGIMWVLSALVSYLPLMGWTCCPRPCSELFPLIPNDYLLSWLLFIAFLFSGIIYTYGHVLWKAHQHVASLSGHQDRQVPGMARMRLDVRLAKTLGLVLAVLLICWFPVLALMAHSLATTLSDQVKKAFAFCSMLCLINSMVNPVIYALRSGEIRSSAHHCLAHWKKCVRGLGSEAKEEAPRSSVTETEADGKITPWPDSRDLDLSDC

Compound | Ki (human CB2 receptors) | displacement of [^3H]WIN-55,212-2 (Figure 1B) [1] | displacement of [^3H]WIN-55,212-2 (Figure 1B) [2] | displacement of [^3H]CP-55,940 [3] | displacement of [^3H]CP-55,940 [4] | displacement of [^3H]WIN-55,212-2 (Figure 1B) [5] | Kd [6] | Kd [7] | displacement of [^3H]CP-55,940 [8] | Kd [9] | displacement of [^3H]WIN-55,212-2 (Figure 1B) [10]
COc1ccc2c(c1)c(CCN1CCOCC1)c(C)n2C(=O)c1cccc(Cl)c1Cl [GW-405833] | 51 nM | – | – | – | – | – | – | – | – | – | –
Cc1c(C(=O)c2cccc3ccccc23)c2cccc3c2n1[C@H](CN1CCOCC1)CO3 [WIN-55,212-2] | – | significantly displaced | significantly displaced | neither the non-selective CBR ligand CP-55,940 nor WIN-55,212-2 produced significant displacement | neither the non-selective CBR ligand CP-55,940 nor WIN-55,212-2 produced significant displacement | produced near or complete displacement | 8.4 ± 2.1 nM | 7 ± 1.6 nM | neither the non-selective CBR ligand CP-55,940 nor WIN-55,212-2 produced significant displacement | 16.1 ± 2.5 nM | produced near or complete displacement
